Legend:
[1] = test system: Dendritic cells co-cultured with BCMA ADC treated NCI-H929 cells; assay: IL-10 and IL-12p70 in co-culture supernatants (MSD kits); format: cell-based, human
Experimental: Day 7 iDCs were co-cultured with J6M0 ADC enhanced antigen binding protein treated NCI-H929 cells at 1:1 ratio for 24 hours on 96 well plates. All cells were counted at the initiation of the co-culture and diluted with X-Vivo-15 media to a concentration of 7.5×10^5 cells/mL. 7.5×10^4 cells/well (100 μl) each of iDCS and pre-treated NCI-H929 cells were combined in each well on a 96 well plate. Co-cultured cells were incubated 37° C./5% CO2 for 24 hours. A flow cytometry panel consisting of CD1a, CD11c, CD40, CD80, CD83, CD86, HLA-DR, & CD14 was used to assess fresh, FcR blocked Dendritic Cell differentiation and maturation on the FACS Canto II. […]
Data analysis was performed in Flow Jo v7.6.5 for the flow cytometry panel and used either CD11c+ or HLA-DR+ cell gating to distinguish the dendritic Cells from the tumor cells. […] Data for the secreted IL-10 and IL-12p70 from supernatants in the co-culture assays w analyzed in MSD Discovery Workbench v4.0.12.
FIGS. 3A and 3B: IL-10 decreased in the supernatants from co-cultured Dendritic cells from two healthy human donors and BCMA ADC treated NCI-H929 Multiple Myeloma cells. IL-10 was measured in (a) untreated (no BCMA ADC) Dendritic cells alone and (b-f) Dendritic cells that were co-cultured with (b) untreated (no BCMA ADC), (c) IgG Control (10 μg/mL), (d) 0.1, (e) 1 and (f) 10 μg/mL BCMA ADC treated (48 hours) NCI-H929 cells. […]

[2] = test system: CD4 and CD8 T cells in PBMC; assay: PBMC T cell activation assay (anti-CD3/anti-CD28 stimulation), activation markers by flow cytometry; format: cell-based, human; conditions: 24 and 72 hrs, 30, 3 and 0.3 μg/mL
Text: T cells can be activated through the engagement of the T cell receptor (TCR) and co-stimulatory molecules expressed on the cell surface. […] Furthermore, upon activation, T cells produce cytokines such as IFNγ and IL-4. The effect of BCMA ADC on IFNγ and IL-4 productions in stimulated T cells was also studied. These experiments can provide data on the effect of BCMA ADC on T cells activation and function. In addition, proliferation of human CD4+ and CD8+ T cells upon stimulation in the presence of BCMA ADC was also evaluated. Human blood was obtained from the blood donor procurement program at GlaxoSmithKline. Peripheral blood mononuclear cells (PBMCs) were isolated from human whole blood by Ficoll density gradient centrifugation (GE Healthcare). Anti-human CD3 antibody (eBioscience, catalog #16-0037-85, clone OKT3) diluted with coating buffer (Biolegend, catalog #421701) was coated on 96 well flat-bottom plate overnight.
In this study, BCMA ADC treatment and PBMC activation occurred concurrently and the effects were monitored at 24 and 72 hrs. […] Immunofluorescence analysis was performed on a FACS CANTO II flow cytometer (BD Biosciences) and analyzed with DIVA software (BD Biosciences). Flow cytometry was used to monitor the percentage of CD4 or CD8 cells that express a given marker, and the mean fluorescence intensity (MFI) of this maker in CD4 or CD8 cells. […]

Q: GSK2857916 was tested. Which IL-10 production ([1]; 0.1, 1, 10 μg/mL BCMA ADC) did it give?
A: Its IL-10 production is “significant inhibitory effect”.

Q: And the IL-12p70 ([1]; all conditions)?
A: The IL-12p70 was “below the detection limit”.

Q: What about the “effect on anti-CD3/anti-CD28 stimulated CD4 and CD8 T cell activation” value [2] of the same substance?
A: The value was “minimal effect”.

From patent publication US20220096650A1 (Glaxosmithkline Intellectual Property Development Limited, priority 2019, published 2022)
